Test results from paper PMC8650221 (Biochemistry, 2021).
Like-named read-outs stand apart in the source and are kept apart here.

What was measured:
[1] = molecular target: T1, T100’A OMPDC (Saccharomyces cerevisiae, UniProt P03962, T100A); format: biochemical; conditions: pH 7.0, 25 °C, I = 0.15 (NaCl); for (kcat/Km)E•Act/Kd: activated decarboxylation of FO, T100’A OMPDC; for Kd: activator of T100’A OMPDC-catalyzed decarboxylation of FO
[2] = tested on: wild type OMPDC; conditions: cited from earlier work; for (kcat/Km)E•Act/Kd: activated decarboxylation of FO, pH 7.0, 25 °C, I = 0.15 (NaCl); for stabilization of the transition state for OMPDC-catalyzed decarboxylation of FO by activator (ΔG^‡act): 1.0 M dianion activator
[3] = tested on: adenylate kinase; conditions: cited from earlier work
[4] = molecular target: T2, D37G OMPDC (Saccharomyces cerevisiae, UniProt P03962, D37G); assay: D37G variant OMPDC-catalyzed decarboxylation of FO, dianion-activated; format: biochemical
T2 sequence (P03962 whole entry D37G): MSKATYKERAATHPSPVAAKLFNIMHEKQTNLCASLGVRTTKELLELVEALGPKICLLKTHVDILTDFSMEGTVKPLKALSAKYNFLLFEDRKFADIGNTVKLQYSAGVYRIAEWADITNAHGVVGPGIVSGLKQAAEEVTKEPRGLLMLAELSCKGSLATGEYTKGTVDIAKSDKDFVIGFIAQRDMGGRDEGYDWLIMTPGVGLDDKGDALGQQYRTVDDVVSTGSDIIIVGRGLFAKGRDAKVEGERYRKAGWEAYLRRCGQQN

[5] = molecular target: T2, D37G OMPDC; format: biochemical; conditions: phosphite dianion activation of D37G-catalyzed decarboxylation of EO, pH 7.0, 25 °C, I = 0.14 (NaCl)
[6] = tested on: wild type OMPDC; conditions: cited from earlier work
[7] = molecular target: T2, D37G OMPDC; assay: D37G variant OMPDC-catalyzed decarboxylation of OMP; format: biochemical
[8] = molecular target: T1, T100’A OMPDC; assay: T100’A variant OMPDC-catalyzed decarboxylation of OMP; format: biochemical
[9] = tested on: wild type OMPDC; conditions: cited from earlier work; remark: listed apart in the source

T1 sequence (P03962 whole entry T100A): as the sequence (P03962 whole entry D37G) above, with G37D, T100A counted along it

SMILES	(kcat/Km)E•Act/Kd [1]	Kd [1]	(kcat/Km)E•Act/Kd [2]	stabilization of the transition state for OMPDC-catalyzed decarboxylation of FO by activator (ΔG^‡act) [2] [kcal/mol]	other results
O=P(O)(O)OCC(O)CO (racemic) [DLG3P, D,L-glycerol 3-phosphate]	(1.7 ± 0.2) × 10^−3 M^−2 s^−1	94 ± 8 mM	1.3 × 10^−2 M^−2 s^−1		
Nc1c2ncnc-2ncn1[C@@H]1OC[C@@H](O)[C@H]1O [(1-β-D-erythrofuranosyl)adenine]					transition state stabilization by interactions with the substrate piece ([3]; phosphoryl transfer from ATP to phosphite dianion): ≥ 8.7 kcal/mol
Nc1ncnc2c1ncn2[C@@H]1O[C@H](COP(=O)(O)O)[C@@H](O)[C@H]1O [AMP]					transition state stabilization by interactions with the adenosyl group ([3]; enzyme-catalyzed phosphoryl transfer from ATP (to AMP)): ≥ 14.7 kcal/mol
O=P(O)(O)OC[C@@H](O)[C@@H](O)CO [DE4P, D-erythritol 4-phosphate]	(5.4 ± 0.1) × 10^−3 M^−2 s^−1		6.0 × 10^−1 M^−2 s^−1	9.0	Kd [4]: 3 mM
O=P(O)(O)OCC(O)CO [DG3P, D-glycerol 3-phosphate]			2.5 × 10^−2 M^−2 s^−1	7.2	
O=[PH](O)O [HPO3^2−, phosphite dianion]	(1.87 ± 0.03) × 10^−4 M^−2 s^−1	Kd >> [HPO3^2−]^e	8.4 × 10^−4 M^−2 s^−1	5.2	Kd [5]: 5.1 mM; Kd ([4]; activator of D37G OMPDC-catalyzed decarboxylation of FO, pH 7.0, 25 °C, I = 0.15 (NaCl)): 4.7 mM; Kd ([4]; phosphite dianion activation of D37G-catalyzed decarboxylation of FO): 4.7 mM; ΔG^‡act, stabilization of the decarboxylation transition state by phosphite dianion ([6]; decarboxylation of EO, wild type OMPDC): 7.7 kcal/mol; Kd ([6]; productive (observed) binding of phosphite dianion activator to wild type OMPDC or variant enzymes): ~100 mM
O=P(O)(O)OC[C@H](O)CO [LG3P, L-glycerol 3-phosphate]	(5.3 ± 0.2) × 10^−4 M^−2 s^−1	Kd >> [LG3P]^e	1.0 × 10^−3 M^−2 s^−1		
O=C(O)c1cc(=O)[nH]c(=O)n1[C@@H]1O[C@H](COP(=O)(O)O)[C@@H](O)[C@H]1O [OMP, orotidine 5’-monophosphate]					intrinsic dianion binding energy ([7]; D37G OMPDC, calculated from ratio of kcat/Km for OMP and EO (Table 1)): 11.0 kcal/mol; decrease in transition state stabilization by protein interactions with the substrate dianion ([7]; effect of D37G substitution, decarboxylation of OMP): 0.7 kcal/mol; intrinsic dianion binding energy ([8]; T100’A OMPDC, calculated from ratio of kcat/Km for OMP and EO (Table 1)): 10.8 kcal/mol; decrease in transition state stabilization by protein interactions with the substrate dianion ([8]; effect of T100’A substitution, decarboxylation of OMP): 0.9 kcal/mol; stabilization of the Michaelis complex ([9]; Michaelis complex of OMPDC to OMP): 8 kcal/mol; transition state stabilization ([9]; OMPDC-catalyzed decarboxylation of OMP): 31 kcal/mol; intrinsic dianion binding energy ([9]; wild type OMPDC, from ratio of kcat/Km for OMP and EO): 11.7 kcal/mol
